{"source": "patent US11179433B2", "about": "“Mouth freshener” (ARI HEALTHCARE PVT. LTD., priority 2014, dated 2021)", "type_in_all_cases": "cell-based", "conditions_in_all_cases": "control, concentration not given, 100 μl per well", "key": {"Escherichia coli": {"system": "Escherichia coli", "assay": "Anti-microbial activity, agar well diffusion (zone of inhibition)", "experimental": "(§1) The anti-microbial activity and the anti-fungal activity of the mouth freshener composition of the present disclosure was determined by testing it on Escherichia coli, Staphylococcus aureus and Candida albicans as the test microorganisms in comparison with a product presently available in the market (herein forward referred to as Product X), methanol and a standard drug i.e. Chlorhexidine. Escherichia coli, Staphylococcus aureus were grown in Luria-Bertani broth (LB broth) and Candida albicans was grown in Potato Dextrose broth (PD broth) until the growth reached approximately 10^6 cfu (colony forming units) per ml culture was attained. 100 μl of this culture was used for the antimicrobial assay. The 1-4% solution of powder extract was prepared by dissolving the extract in methanol as a solvent and all these solutions were store at 4° C. temperature till further use. Mueller-Hinton (HiMedia) agar plates were used to carry out the testing of the anti-microbial activity and Potato dextrose (Himedia) agar plates were used to carry out the testing of the anti-fungal activity of the mouth freshener composition. The dried surface of a Mueller-Hinton agar plate was inoculated by spreading 100 μl culture suspension on the agar surface. […]"}, "Staphylococcus aureus": {"system": "Staphylococcus aureus", "assay": "Anti-microbial activity, agar well diffusion (zone of inhibition)", "experimental": "as §1"}, "Candida albicans": {"system": "Candida albicans", "assay": "Anti-fungal activity, agar well diffusion (zone of inhibition)", "experimental": "as §1"}}}
{"compound": "[H]/N=C(\\N/C(=N/[H])NCCCCCCNC(=N)NC(=N)Nc1ccc(Cl)cc1)Nc1ccc(Cl)cc1", "note": "[Chlorhexidine]", "values": [{"measurement": "Zone of inhibition", "setting": "Escherichia coli", "value": 15, "unit": "mm"}, {"measurement": "Zone of inhibition", "setting": "Staphylococcus aureus", "value": 18, "unit": "mm"}, {"measurement": "Zone of inhibition", "setting": "Candida albicans", "value": 19, "unit": "mm"}]}
